Experimental data taken from patent US12195482B1 (Arcus Biosciences, Inc., priority 2022, dated 2025).

Target: T1, Axl (Homo sapiens, UniProt P30530)
T1 sequence (P30530 26-894): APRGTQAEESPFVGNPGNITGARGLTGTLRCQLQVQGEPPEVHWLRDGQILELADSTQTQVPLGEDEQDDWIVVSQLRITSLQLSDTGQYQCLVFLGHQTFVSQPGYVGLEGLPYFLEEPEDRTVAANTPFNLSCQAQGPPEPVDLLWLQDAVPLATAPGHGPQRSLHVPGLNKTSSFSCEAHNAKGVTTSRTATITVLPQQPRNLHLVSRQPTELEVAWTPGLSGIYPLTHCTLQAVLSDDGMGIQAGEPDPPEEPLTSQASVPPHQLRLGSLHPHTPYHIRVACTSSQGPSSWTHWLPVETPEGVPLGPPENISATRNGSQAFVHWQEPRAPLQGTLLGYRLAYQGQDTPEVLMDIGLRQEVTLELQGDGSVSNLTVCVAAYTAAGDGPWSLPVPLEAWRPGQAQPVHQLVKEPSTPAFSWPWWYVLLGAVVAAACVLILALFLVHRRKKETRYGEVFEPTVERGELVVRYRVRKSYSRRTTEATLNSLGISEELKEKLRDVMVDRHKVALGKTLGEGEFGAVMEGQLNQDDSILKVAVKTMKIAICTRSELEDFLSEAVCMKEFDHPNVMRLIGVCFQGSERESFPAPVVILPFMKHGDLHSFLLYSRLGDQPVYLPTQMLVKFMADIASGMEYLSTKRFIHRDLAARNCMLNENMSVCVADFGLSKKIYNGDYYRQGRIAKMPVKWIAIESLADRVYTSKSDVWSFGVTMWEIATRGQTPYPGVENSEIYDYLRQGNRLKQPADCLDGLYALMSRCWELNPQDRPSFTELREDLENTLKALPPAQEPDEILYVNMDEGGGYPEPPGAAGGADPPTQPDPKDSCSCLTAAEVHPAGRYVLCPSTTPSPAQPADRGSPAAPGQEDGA
Assay: Axl NanoBRET intracellular kinase assay (intracellular binding, K-5 tracer displacement)
Design: host or cells: HEK-293
Details: HEK-293 cells transfected with Axl-NanoLuc, 0.35 μM K-5 NanoBRET tracer; read-out: Cell Binding AXL
Experimental: Measuring Intracellular Binding of Axl Inhibitors
Axl NanoBRET™ intracellular kinase assay (Promega, N2540) was performed according to manufacturer's recommendation. In brief, HEK-293 cells are transiently transfected with Ax1-NanoLuc fusion vector (Promega, NV1071), utilizing Fugene HD transfection reagent (Promega, E2311) a day before experiment following manufacturer's recommendation.
The day of the assay, the cells were collected and resuspended in Opti-MEM media (ThermoFisher, 31985070) at 2e5 cells/mL concentration. Testing compounds were serial diluted and dispensed into a white 384 well polystyrene plate at 200 nL in 100% DMSO. 40 μL of resuspended cells is then added per well for a final condition of 8K cells/well with 0.5% DMSO. After one-hour compound pre-incubation at 37° C. and 5% CO2, cells were further incubated with 0.35 μM K-5 NanoBRET tracer for two-hours at 37° C. and 5% CO2. […] of 3× substrate plus Inhibitor solution was prepared according to kits manual and added to the cells followed by a 30 second pulse centrifugation spin. The plate was then immediately read utilizing an Envision (Perkin Elmer) plate reader. The BRET signal is measured by taking the ratio of the emissions reading at 610 nm and 450 nm. Compound binding is based on the decrease BRET signal caused by the displacement of the K-5 tracer. […] ICso value of compounds was determined by 4-parameter non-linear regression fitting of percent activity in GraphPad Prism software.

`Cc1ccnnc1-c1ccc(-c2c[nH]c3ncc(-c4ccc5c(c4)CC[C@@H](N4C6COCC4C6)CC5)cc23)cc1` [Example 49, 6-[(7S)-2-{3-[4-(4-Methylpyridazin-3-yl)phenyl]-1H-pyrrolo[2,3-b]pyridin-5-yl}-6,7,8,9-tetrahydro-5H-benzo[7]annulen-7-yl]-3-oxa-6-azabicyclo[3.1.1]heptane] gave an IC50 of under 0.1 µM.
With `Clc1cc(-c2c[nH]c3ncc(-c4ccc5c(c4)CC[C@@H](N4C6COCC4C6)CC5)cc23)ccc1-c1ccccn1` [Example 44, 6-[(7S)-2-{3-[3-Chloro-4-(pyridin-2-yl)phenyl]-1H-pyrrolo[2,3-b]pyridin-5-yl}-6,7,8,9-tetrahydro-5H-benzo[7]annulen-7-yl]-3-oxa-6-azabicyclo[3.1.1]heptane] the IC50 was under 0.1 µM.
`COc1cc(-c2c[nH]c3ncc(-c4ccc5c(c4)CC[C@@H](N4C6COCC4C6)CC5)cc23)ccc1-c1ccccn1` [Example 161, 6-[(7S)-2-{3-[3-Methoxy-4-(pyridin-2-yl)phenyl]-1H-pyrrolo[2,3-b]pyridin-5-yl}-6,7,8,9-tetrahydro-5H-benzo[7]annulen-7-yl]-3-oxa-6-azabicyclo[3.1.1]heptane] was tested, and the IC50 was 0.1 to 1 µM.
In the case of `C[C@@H]1CCCN1[C@@]1(C)CCc2ccc(-c3cnc4[nH]nc(-c5ccc(-c6nccs6)cc5)c4c3)cc2CC1` [Example 91, 2-(4-{5-[(7S)-7-Methyl-7-[(2R)-2-methylpyrrolidin-1-yl]-6,7,8,9-tetrahydro-5H-benzo[7]annulen-2-yl]-2H-pyrazolo[3,4-b]pyridin-3-yl}phenyl)-1,3-thiazole], the IC50 is reported as under 0.1 µM.
`N#Cc1cccnc1-c1ccc(-c2c[nH]c3ncc(-c4ccc5c(c4)CC[C@@H](N4C6COCC4C6)CC5)cc23)cc1` [Example 46, 2-(4-{5-[(7S)-7-{3-Oxa-6-azabicyclo[3.1.1]heptan-6-yl}-6,7,8,9-tetrahydro-5H-benzo[7]annulen-2-yl]-1H-pyrrolo[2,3-b]pyridin-3-yl}phenyl)pyridine-3-carbonitrile] gave an IC50 of under 0.1 µM.
Compound `CS(=O)(=O)c1ccccc1-c1ccc(-c2c[nH]c3ncc(-c4ccc5c(c4)CC[C@@H](N4C6COCC4C6)CC5)cc23)cc1` [Example 93, 6-[(7S)-2-(3-{2′-Methanesulfonyl-[1,1′-biphenyl]-4-yl}-1H-pyrrolo[2,3-b]pyridin-5-yl)-6,7,8,9-tetrahydro-5H-benzo[7]annulen-7-yl]-3-oxa-6-azabicyclo[3.1.1]heptane] has an IC50 of under 0.1 µM.
Compound `COc1cc(-c2n[nH]c3ncc(-c4ccc5c(c4)CC[C@@H](N4C6COCC4C6)CC5)cc23)ccc1-c1ccccn1` [Example 160, 6-[(7S)-2-{3-[3-Methoxy-4-(pyridin-2-yl)phenyl]-2H-pyrazolo[3,4-b]pyridin-5-yl}-6,7,8,9-tetrahydro-5H-benzo[7]annulen-7-yl]-3-oxa-6-azabicyclo[3.1.1]heptane] has an IC50 of 0.1 to 1 µM.
For `c1cc(-c2ccc(-c3c[nH]c4ncc(-c5ccc6c(c5)CC[C@@H](N5C7COCC5C7)CC6)cc34)cc2)ccn1` [Example 41, 6-[(7S)-2-{3-[4-(Pyridin-4-yl)phenyl]-1H-pyrrolo[2,3-b]pyridin-5-yl}-6,7,8,9-tetrahydro-5H-benzo[7]annulen-7-yl]-3-oxa-6-azabicyclo[3.1.1]heptane], the IC50 was 0.1 to 1 µM.
In the case of `Cc1nccnc1-c1ccc(-c2c[nH]c3ncc(-c4ccc5c(c4)CC[C@@H](N4C6COCC4C6)CC5)cc23)cc1` [Example 48, 6-[(7S)-2-{3-[4-(3-Methylpyrazin-2-yl)phenyl]-1H-pyrrolo[2,3-b]pyridin-5-yl}-6,7,8,9-tetrahydro-5H-benzo[7]annulen-7-yl]-3-oxa-6-azabicyclo[3.1.1]heptane], the IC50 is reported as under 0.1 µM.
Compound `Fc1cccnc1-c1ccc(-c2c[nH]c3ncc(-c4ccc5c(c4)CC[C@@H](N4C6COCC4C6)CC5)cc23)cc1` [Example 42, 6-[(7S)-2-{3-[4-(3-Fluoropyridin-2-yl)phenyl]-1H-pyrrolo[2,3-b]pyridin-5-yl}-6,7,8,9-tetrahydro-5H-benzo[7]annulen-7-yl]-3-oxa-6-azabicyclo[3.1.1]heptane] has an IC50 of 0.1 to 1 µM.
With `Clc1cccnc1-c1ccc(-c2c[nH]c3ncc(-c4ccc5c(c4)CC[C@@H](N4C6COCC4C6)CC5)cc23)cc1` [Example 43, 6-[(7S)-2-{3-[4-(3-Chloropyridin-2-yl)phenyl]-1H-pyrrolo[2,3-b]pyridin-5-yl}-6,7,8,9-tetrahydro-5H-benzo[7]annulen-7-yl]-3-oxa-6-azabicyclo[3.1.1]heptane] the IC50 was 0.1 to 1 µM.
Compound `c1cc(-n2cc(-c3c[nH]c4ncc(-c5ccc6c(c5)CC[C@@H](N5C7COCC5C7)CC6)cc34)cn2)ccn1` [Example 45, 6-[(7S)-2-{3-[1-(Pyridin-4-yl)-1H-pyrazol-4-yl]-1H-pyrrolo[2,3-b]pyridin-5-yl}-6,7,8,9-tetrahydro-5H-benzo[7]annulen-7-yl]-3-oxa-6-azabicyclo[3.1.1]heptane] has an IC50 of under 0.1 µM.
`Cc1cccnc1-c1ccc(-c2c[nH]c3ncc(-c4ccc5c(c4)CC[C@@H](N4C6COCC4C6)CC5)cc23)cc1` [Example 1, 6-[(7S)-2-{3-[4-(3-Methylpyridin-2-yl)phenyl]-1H-pyrrolo[2,3-b]pyridin-5-yl}-6,7,8,9-tetrahydro-5H-benzo[7]annulen-7-yl]-3-oxa-6-azabicyclo[3.1.1]heptane] showed an IC50 of under 0.1 µM.
Work on `Cc1cccnc1-c1ccc(-c2n[nH]c3ncc(-c4ccc5c(c4)CC[C@@H](N4C6COCC4C6)CC5)cc23)cc1` [Example 2, 6-[(7S)-2-{3-[4-(3-Methylpyridin-2-yl)phenyl]-2H-pyrazolo[3,4-b]pyridin-5-yl}-6,7,8,9-tetrahydro-5H-benzo[7]annulen-7-yl]-3-oxa-6-azabicyclo[3.1.1]heptane] yielded an IC50 of under 0.1 µM.
In the case of `C[C@@H]1CCCN1[C@@]1(C)CCc2ccc(-c3cnc4[nH]nc(-c5ccc(-c6ncco6)cc5)c4c3)cc2CC1` [Example 90, 2-(4-{5-[(7S)-7-Methyl-7-[(2R)-2-methylpyrrolidin-1-yl]-6,7,8,9-tetrahydro-5H-benzo[7]annulen-2-yl]-2H-pyrazolo[3,4-b]pyridin-3-yl}phenyl)-1,3-oxazole], the IC50 is reported as under 0.1 µM.
Work on `Cc1cncnc1-c1ccc(-c2c[nH]c3ncc(-c4ccc5c(c4)CC[C@@H](N4C6COCC4C6)CC5)cc23)cc1` [Example 47, 6-[(7S)-2-{3-[4-(5-Methylpyrimidin-4-yl)phenyl]-1H-pyrrolo[2,3-b]pyridin-5-yl}-6,7,8,9-tetrahydro-5H-benzo[7]annulen-7-yl]-3-oxa-6-azabicyclo[3.1.1]heptane] yielded an IC50 of under 0.1 µM.
With `COc1cccc(-c2ccc(-c3n[nH]c4ncc(-c5ccc6c(c5)CC[C@@H](N5C7COCC5C7)CC6)cc34)cc2)n1` [Example 162, 6-[(7S)-2-{3-[4-(6-Methoxypyridin-2-yl)phenyl]-2H-pyrazolo[3,4-b]pyridin-5-yl}-6,7,8,9-tetrahydro-5H-benzo[7]annulen-7-yl]-3-oxa-6-azabicyclo[3.1.1]heptane] the IC50 was over 1 µM.
In the case of `Cc1nncn1-c1ccc(-c2n[nH]c3ncc(-c4ccc5c(c4)CC[C@@H](N4C6COCC4C6)CC5)cc23)cc1` [Example 11, 6-[(7S)-2-{3-[4-(3-Methyl-4H-1,2,4-triazol-4-yl)phenyl]-1H-pyrazolo[3,4-b]pyridin-5-yl}-6,7,8,9-tetrahydro-5H-benzo[7]annulen-7-yl]-3-oxa-6-azabicyclo[3.1.1]heptane], the IC50 is reported as 0.1 to 1 µM.
`c1cncc(-c2ccc(-c3n[nH]c4ncc(-c5ccc6c(c5)CC[C@@H](N5C7COCC5C7)CC6)cc34)cc2)c1` [Example 157, 6-[(7S)-2-{3-[4-(Pyridin-3-yl)phenyl]-2H-pyrazolo[3,4-b]pyridin-5-yl}-6,7,8,9-tetrahydro-5H-benzo[7]annulen-7-yl]-3-oxa-6-azabicyclo[3.1.1]heptane] gave an IC50 of 0.1 to 1 µM.
For `CN(C)C(=O)c1ccccc1-c1ccc(-c2c[nH]c3ncc(-c4ccc5c(c4)CC[C@@H](N4C6COCC4C6)CC5)cc23)cc1` [Example 92, N,N-Dimethyl-4′-{5-[(7S)-7-{3-oxa-6-azabicyclo[3.1.1]heptan-6-yl}-6,7,8,9-tetrahydro-5H-benzo[7]annulen-2-yl]-1H-pyrrolo[2,3-b]pyridin-3-yl}-[1,1′-biphenyl]-2-carboxamide], the IC50 was under 0.1 µM.
